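How tested: cells in 96-well plates exposed to compound for 48 hours at five concentrations. Here, GI50 denotes the concentration required for 50% inhibition of growth.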 Activity calls are given as the source filed them. Cut-off read from the data, not from the text of the source: active = GI50 up to about 1.1 µM and inactive = higher.
Key:
Test in all cases: NCI-60 cell line screen, 48 h
MDA-N = test system: MDA-N
SF-539 = test system: SF-539
CCRF-CEM = test system: CCRF-CEM
OVCAR-8 = test system: OVCAR-8
UO-31 = test system: UO-31
NCI/ADR-RES = test system: NCI/ADR-RES
MDA-MB-231 = test system: MDA-MB-231
786-0 = test system: 786-0
OVCAR-3 = test system: OVCAR-3
UACC-257 = test system: UACC-257
HCT-15 = test system: HCT-15
NCI-H460 = test system: NCI-H460
SK-MEL-5 = test system: SK-MEL-5
HCT-116 = test system: HCT-116
HOP-62 = test system: HOP-62
SN12C = test system: SN12C
COLO 205 = test system: COLO 205
EKVX = test system: EKVX
MDA-MB-435 = test system: MDA-MB-435
HCC 2998 = test system: HCC 2998

Row | Compound | GI50 (MDA-N) | GI50 (SF-539) | GI50 (CCRF-CEM) | GI50 (OVCAR-8) | GI50 (UO-31) | GI50 (NCI/ADR-RES) | GI50 (MDA-MB-231) | GI50 (786-0) | GI50 (OVCAR-3) | GI50 (UACC-257) | GI50 (HCT-15) [µM] | GI50 (NCI-H460) | GI50 (SK-MEL-5) | GI50 (HCT-116) | GI50 (HOP-62) | GI50 (SN12C) | GI50 (COLO 205) | GI50 (EKVX) | GI50 (MDA-MB-435) | GI50 (HCC 2998)
1 | CCC1(C)NC(c2cnccn2)=NN1c1ccc(Cl)cc1 (stereo not drawn) | > 100 µM (inactive) | > 100 µM (inactive) | 18.7 µM (inactive) | > 100 µM (inactive) | > 100 µM (inactive) | > 100 µM (inactive) | > 100 µM (inactive) | 73.8 µM (inactive) | 39.8 µM (inactive) | 21.9 µM (inactive) | > 100 | 81.7 µM (inactive) | > 100 µM (inactive) | 66.8 µM (inactive) | > 100 µM (inactive) | 29 µM (inactive) | > 100 µM (inactive) | > 100 µM (inactive) | > 100 µM (inactive) | 
2 | COc1cc(/C=C/C(=O)CC(=O)/C=C/c2ccc(OC(=O)CCCCC3CCSS3)c(OC)c2)ccc1OC(=O)CCCCC1CCSS1 (stereo not drawn) | > 100 µM (inactive) | > 100 µM (inactive) | > 100 µM (inactive) | > 100 µM (inactive) | > 100 µM (inactive) | > 100 µM (inactive) | > 100 µM (inactive) | > 100 µM (inactive) | > 100 µM (inactive) | > 100 µM (inactive) | > 100 | > 100 µM (inactive) | > 100 µM (inactive) | > 100 µM (inactive) | > 100 µM (inactive) | > 100 µM (inactive) | > 100 µM (inactive) | > 100 µM (inactive) | > 100 µM (inactive) | 
3 | Cc1ccc(/N=N/C(=O)NNc2ccc(C)cc2Br)c(Br)c1 | 19.3 µM (inactive) |  | 2.58 µM (inactive) | 20.5 µM (inactive) | 16 µM (inactive) |  | 26.3 µM (inactive) | 18.4 µM (inactive) | 19.9 µM (inactive) | 26.8 µM (inactive) | 20 | 17.3 µM (inactive) | 16.9 µM (inactive) | 10.9 µM (inactive) | 19.6 µM (inactive) | 21.4 µM (inactive) |  |  | 30.5 µM (inactive) | 16.4 µM (inactive)
4 | C1CNCCN2CCCNCCN(C1)CC2 | > 100 µM (inactive) | > 100 µM (inactive) | 2 µM (inactive) | > 100 µM (inactive) | > 100 µM (inactive) | > 100 µM (inactive) | > 100 µM (inactive) | > 100 µM (inactive) | > 100 µM (inactive) | > 100 µM (inactive) | > 100 | > 100 µM (inactive) | > 100 µM (inactive) | > 100 µM (inactive) | > 100 µM (inactive) | > 100 µM (inactive) | > 100 µM (inactive) | > 100 µM (inactive) | > 100 µM (inactive) | 
5 | COc1cccc2c1-c1nc(N)c3c(OC)cccc3c1C2=O | > 100 µM (inactive) | > 100 µM (inactive) | > 100 µM (inactive) | 85.5 µM (inactive) | 45.1 µM (inactive) | > 100 µM (inactive) | 19.1 µM (inactive) | 35.9 µM (inactive) | > 100 µM (inactive) | > 100 µM (inactive) | 28.9 |  | > 100 µM (inactive) | > 100 µM (inactive) | 22.8 µM (inactive) | 95.1 µM (inactive) | > 100 µM (inactive) | 54.1 µM (inactive) | > 100 µM (inactive) | 
6 | NC1(CCNC(=O)c2ccccc2)CCN(C(=O)c2ccccc2)CC1 | > 100 µM (inactive) | > 100 µM (inactive) | > 100 µM (inactive) | > 100 µM (inactive) | > 100 µM (inactive) | > 100 µM (inactive) | > 10 µM (inactive) | > 100 µM (inactive) |  | > 100 µM (inactive) | > 100 | > 100 µM (inactive) | > 100 µM (inactive) | > 100 µM (inactive) |  | > 100 µM (inactive) | 41.7 µM (inactive) | > 100 µM (inactive) | > 100 µM (inactive) | 
7 | CC(C)(C)OC(=O)n1cc(C2CN(O)C(=O)C23CCC(=O)N3Cc2ccccc2)c2ccccc21 (stereo not drawn) | 52.7 µM (inactive) | 49 µM (inactive) | 83.2 µM (inactive) |  | 40.7 µM (inactive) | 69.5 µM (inactive) | 28.8 µM (inactive) | 45.9 µM (inactive) | 66.5 µM (inactive) | 64.1 µM (inactive) |  | 56.4 µM (inactive) | 29.4 µM (inactive) | 66.2 µM (inactive) | 93.1 µM (inactive) | 27 µM (inactive) | 36.1 µM (inactive) | 21.9 µM (inactive) | 28.6 µM (inactive) | 
8 | c1ccc(C2=Nc3nc4ccccc4n3C(c3ccccc3)C2)cc1 (stereo not drawn) | > 100 µM (inactive) | > 100 µM (inactive) | > 100 µM (inactive) | > 100 µM (inactive) | > 100 µM (inactive) | > 100 µM (inactive) | 70.6 µM (inactive) | > 100 µM (inactive) | > 100 µM (inactive) | > 100 µM (inactive) | > 100 | > 100 µM (inactive) | > 100 µM (inactive) | > 100 µM (inactive) | 36 µM (inactive) |  | > 100 µM (inactive) | > 100 µM (inactive) | 36 µM (inactive) | 

Source: ChEMBL document CHEMBL1201862, “PubChem BioAssay data set” (2004)
